Assay results taken from patent publication US9359405B2, “Antagonists of the interleukin-1 receptor” (Phlogo ApS, priority 2011, dated 2016).
No end group written: not given here.

How the values were obtained:
[1] = tested on: NF-κB activated by IL1β (IL1RI signaling), HEK-Blue IL1β cells; assay: IL1RI signaling assay, HEK-Blue IL1β reporter cells (NF-κB/SEAP); format: cell-based; settings: IL1β 1.2 μM
From the text: (§1) IL1RI signaling assay: Commercially available Blue™ Cytokine Reporter Cell technology from InvivoGen (Denmark distributor: Sigma-Aldrich Denmark) was used. It is represented by an expanding family of engineered cell lines designed to provide a simple, rapid, and reliable method of monitoring the activation of signaling pathways induced by key cytokines. HEK-Blue™ IL1β cells are specifically engineered to selectively respond to IL1β, and they feature the secreted embryonic alkaline phosphatase (SEAP) reporter gene under the control of an NF-κB-inducible promoter. […] A target/receptor-specificity of the Ilantafin effect was verified employing HEK-Blue™ IL6 cells.

[2] = tested on: STAT signalling induced by IL6, HEK-Blue IL6 cells; assay: Target specificity, HEK-Blue IL6 cells; format: cell-based
From the text: as §1

[3] = tested on: cerebellar granule neurons; assay: Neurite outgrowth in primary cerebellar granule neurons; format: cell-based, rat; settings: 24 h, primary cerebellar neurons
Experimental: Cerebellar granular neurons (CGN) were prepared from 3 or 7 postnatal (P) day Wistar rats (Charles River, Sulzfeld, Germany or Taconic, Ejby, Denmark). Cerebella were cleared of meninges and blood vessels, roughly homogenized by chopping, and trypsinized with trypsin from Sigma-Aldrich (Brøndby, Denmark). The neurons were washed in the presence of DNAse 1 and soybean trypsin inhibitor (Sigma-Aldrich), and cellular debris was pelleted by centrifugation before plating. CGNs were plated at a density of 10,000 cells/well onto uncoated eight-well Lab-Tek chamber slides (NUNC, Slangerup, Denmark) in Neurobasal-A medium supplemented with 0.4% (w/v) BSA. Peptides or proteins at various concentrations were added to the medium immediately after plating, and cells were maintained at 37° C. and 5% CO2 for 24 h. Cultures then were fixed, blocked and incubated with polyclonal rabbit antibody against rat GAP-43 (Chemicon, Temecula, Calif., USA) followed by incubation with secondary Alexa Fluor488 goat anti-rabbit antibody (Molecular Probes, Eugene, Oreg., USA) as previously described (Neiiendam et al., 2004). The immunostained cultures were all recorded by computer-assisted fluorescence microscopy using a Nikon Diaphot inverted microscope (Nikon, Japan) equipped with a Nikon Plane 20× objective. Images were captured with a charge-coupled device video camera (Grundig Electronics, Nurnberg, Germany) using the software package Prima developed at the Protein Laboratory (University of Copenhagen, Copenhagen, Denmark). The length of neuronal processes per cell was estimated using the software package Process Length developed at the Protein Laboratory (Ronn et al. 2000). For estimation of neurite outgrowth, at least 200±20 cells were processed for each group in each individual experiment.

[4] = tested on: collagen-induced arthritis (CIA); assay: Collagen-induced arthritis in rats, treatment dpi 8-15 (Example 14); format: in vivo, rat; settings: 10.0 mg/kg s.c. daily dpi 8-15
Experimental: Induction of CIA. The CIA study was performed on a total of 40 male Wistar rats with an average weight of 150 g at the beginning of the experiment. CIA was induced by subcutaneous (s.c.) injection of bovine collagen type II (CII, Sigma-Aldrich) solubilised in 0.05 M acetic acid (2 mg/ml), and then emulsified 1:1 with CFA (Sigma-Aldrich) containing […] heat-inactivated M. tuberculosis. Under inhalation anaesthesia (Isofluran, 3%) 250 μl of the emulsion containing 250 μg of CII and […] was injected (s.c.) at the tail base (post-immunization day, dpi 0).
Treatment design. At dpi 8, before onset of clinical signs, all animals were randomly divided into two groups, 20 rats per group, and were dosed daily during 8 days (dpi 8-15) with Ilantafin (10.0 mg/kg, s.c.) or vehicle (PBS, 1.0 ml/kg, s.c.). […]
Clinical scores. An observer blinded to treatment groups evaluated the severity of arthritis employing the following grading system: O— no redness or swelling in foot; 1—slight redness in foot or redness and swelling in single interfalangeal joints; 2—moderate swelling and redness in ankle and metatarsal part of foot; 3—marked swelling and redness of entire foot, restricted usage of foot in locomotion; 4—marked swelling and redness of entire foot, impossibility of usage foot in locomotion and rearing. […]

In the case of SGRKSSKMQA [Ilantafin], the “inhibition of NF-κB activation induced by IL1β” value [1] is reported as “inhibits activation of macrophages”, the “effect on STAT signalling induced by IL6” value [2] is reported as “does not inhibit signaling induced by IL6” and the neurite outgrowth [3] is reported as “induce neurite outgrowth in primary cerebellar neurons in a dose-dependent manner”. The “morbidity (percentage of animals reached clinical index 7)” value [4] was “significantly reduced morbidity by dpi 12” and the “severity of CIA (clinical score)” value [4] was “attenuated severity of CIA on dpi 13-15”.
